Results taken from US20230276794A1, “MESH MATERIALS FOR CONTROLLED RELEASE OF ANTIVIRALS, METHOD AND USE” (priority 2020, published 2023).

Tested on: Coronavirus (MHV-3 Strain)
Format: cell-based, Coronavirus MHV-3 Strain genus Betacoronavirus
Conditions: concentration of 5%

N=C(NCCCCCCNC(=N)NC(=N)Nc1ccc(Cl)cc1)NC(=N)Nc1ccc(Cl)cc1 [5% Chlorhexidine, 1,1′-hexamethylene-bis(5-(p-chlorophenyl)-biguanide)]
time after which activity was lost: 10 min
